We go through two compounds from US20100234308A1, “WAKE-UP REMEDY” (Kyowa Hakko Kogyo Co., Ltd., priority 2006, published 2010).

Peptide text beside a SMILES is read from it.

One data set concerns healthy person. As to the kind of experiment: Wake-up remedial effect of alanylglutamine on daily consumption (Test Examples 1 and 2). The data set is classed as in vivo, human. The note with it: continuously for 1 month. The source says:
Test examples in which the wake-up remedial effect of alanylglutamine was examined are indicated below.

For data set [1] the following is noted: cited from earlier work.
The conditions of data set [2]: cited from earlier work. This is another data set of the same source.

For `C[C@H](N)C(=O)N[C@@H](CCC(N)=O)C(=O)O` [alanylglutamine] (H-Ala-Gln-OH), in the data set on healthy person (0.5 g daily before going to bed), the awaking result was “improvement in awaking”. Moreover, the awaking entry with healthy person (1.5 g daily) is given as “improvement in awaking”. Besides, the “degradation in the body” value in data set [1] is “immediately degraded into alanine and glutamine”. In data set [2] (compared to glutamine), the heat stability entry is reported as “superior” and the “solubility in aqueous solutions” value is on record as “superior”.

In the case of `NC(=O)CC[C@H](N)C(=O)O` [glutamine, reference compound], the solubility result in data set [2] is “low-solubility”.
